Source: patent US5955421A, “Peptides containing D-2-alkyl-Tryptophan” (priority 1990, dated 1999)
Like-named read-outs stand apart in the source and are kept apart here. Values belong to the molecule of their own block, whether it stands above or below them. Square brackets hold non-standard residues; d marks the D form. Peptide text beside a SMILES is read from it. dTrp(2-Me) = Cc1[nH]c2ccccc2c1C[C@@H](N)C(=O)O; Trp(2-Me) = Cc1[nH]c2ccccc2c1C[C@H](N)C(=O)O; GABA = NCCCC(=O)O

Key:
Growth Hormone release = experiment: GH release in 10-day old rats, s.c. 160 μg/kg; assay type: in vivo; settings: 160 μg/kg s.c.
Experimental: The peptides of Examples 4 and 5 were tested as Growth Hormone releasers in rats. GH released in a series of seven 10-day old rats, injected subcutaneously with a standard dose of 160 μg/kg and sacrificed 15 minutes after the injection.

[1] = tested on: pituitary cell monolayers; experiment: GH secretion of pituitary cell monolayers incubated with peptides; assay type: cell-based, rats; settings: 2 hours incubation
Experimental: (§1) Male Sprague Dawley rats (Charles River, Calco, Italy) of 2-3 months of age were used. Rats were housed at 22 +2° C., with lighting cycle of 14 h light: 10 h dark (lights on from 06.00 to 20.00 h), at least 10 days before starting the experiments. A standard dry diet and water were available ad libitum.
Pituitary tissue used for cell dissociation included only the anterior lobe. Briefly, pituitary glands were collected in sterile F-10 medium and after cutting into small fragments incubated twice (30 minutes each) at 37° C. in F-10 medium containing 6% fetal calf serum and collagenase (2.5 mg/ml) (Boehringer, Mannheim GmbH, Germany). Fragments were then washed in Dulbecco's PBS, Ca^2 + and Mg^2 + free medium and mechanically dissociated. Single cell suspension was planted onto 24-well (2×10^5 cells/well) culture plates. The cells were incubated in F-10 medium supplemented with 10% horse serum, 4% fetal calf serum and gentamycin (25 μg/ml), in a humidified atmosphere of 5% CO2 and 95% air at 37° C.
After 3 days, the medium was removed and the cells washed twice with serum free F-10, then incubated with 1 ml of F-10 containing 0.1% BSA only, or with added various concentrations of synthetic peptides.
After incubation for 2 h at 37° C., media were collected and stored frozen at -20° C. until assayed for measurement of GH content.
(§2) Medium and plasma GH was measured by radioimmunoassay using materials supplied by the NIADDK Bethesda, Md. Values were expressed in term of NIASSK-rat-GH-RP-2 standard (potency 2 IU/ml), as ng/ml of medium or plasma.
(§3) The minimum detectable value of rat was 1.0 ng/ml; intra-assay variability was 6%. To avoid inter-assay variation, samples from each experiment were assayed simultaneously.

GH release [2] = experiment: Plasma GH after s.c. administration in male rats anesthetized with ketamine and xilazine; assay type: in vivo
Experimental: as §1
Between 09.00-10.00 h rats were anesthetized with ketamine (58 mg/kg, Inoketam, VIRBAC, Milano) and xilazine (12 mg/kg, Rompun, Bayer, Milano). Thirty minutes later, a blood sample ([…]) was withdrawn from the exposed jugular vein, peptides were injected intravenously or subcutaneously, and further blood samples were collected 10, 20 and 30 minutes later.
as §2, §3

rat = experiment: Acute cardiovascular toxicity in the rat, single i.v. dose, mortality; assay type: in vivo; settings: for Dead rats/Total No of rats per group: observed up to 4 hours
Experimental: These two peptides were also tested for acute cardiovascular toxicity in the rat.
Dosages were calculated on the basis of the declared peptide content in each product, as specified below:
A single dose of HEXARELIN or GHRP-6 was administered to rats in different calendar dates in such a way that each group/dose should be treated in two subsequent days.
For each compound, appropriate amounts of solutions in 0.9% NaCl for injection were prepared just before treatment at the suitable concentrations. The solutions were sterilized by filtration (Millipore filter, pore size 0.22 μm). Owing to the type of the study (acute study) in which formulates were administered just after preparation, stability checks were not performed. Concentration checks were also not performed. The volume of solution injected was maintained constant at 1 ml/Kg.
The intravenous injections were done as a single dose in one vein of the tail with an appropriately gauged sterile, disposable, plastic syringe. The injection rate was about 0.1 ml/sec.
Periodical observations were made up to 4 hours after treatment. Abnormality and mortality were recorded. Body weight was recorded once during pre-trial and on the administration day to calculate the volumes to be injected.

growth hormone secretion = experiment: Growth hormone secretion in young healthy male volunteers; assay type: in vivo, human; settings: young (20-30 years old) healthy male volunteers, various dosages, FIGS. 18-20
Experimental: The effects of HEXARELIN on growth hormone secretion in young (20-30 years old) healthy male volunteers were measured after the administration of various dosages.

Human heart tissue = experiment: Inhibition of 125I-Tyr-Ala-HEXARELIN binding to human heart tissue membranes
Experimental: (§4) Tissue membranes (0.1 mg protein) obtained from the heart and hypothalamus of two different adult subjects were incubated in triplicate with a subsaturating concentration (34 pM, about 48,000 cpm, for heart tissue and 42 pM, about 60,000 cpm for hypothalamus tissue) of ^125 I-Tyr-Ala-HEXARELIN for 40 min at 0° C. in the absence and in the presence of increasing concentrations of the indicated unlabelled peptides. The value in parentheses represents the % of inhibition of ^125 I-Tyr-Ala-HEXARELIN specifically bound.
(§5) The specific binding of ^125 I-Tyr-Ala-HEXARELIN/0.1 mg membrane protein is expressed as a percent of total radioactivity added.

[3] = tested on: Human hypothalamus tissue; experiment: Inhibition of 125I-Tyr-Ala-HEXARELIN binding to human hypothalamus tissue membranes
Experimental: as §4, §5

GH release [4] = experiment: Released GH in ten day-rats, s.c. (Table 9); assay type: in vivo; settings: 300 μg/kg s.c., 15 minutes, GH control 10 to 31 ng/ml depending on experiment
Experimental: In vivo activity of these compounds was determined in ten day-rats, which were subcutaneously injected (s.c.) with a dose of 300 μg/kg or with different doses in dose-response studies, according to the procedure as described in Deghenghi et. al, Life Sciences 54, 1321 (1994). The released GH was measured 15 minutes following compound administration.

[5] = Hydrophobicity comparison (FIG. 12); assay type: physicochemical
Text: FIG. 12 is a graphical comparison of the hydrophobicity of GHRP-6 and HEXARELIN;

[6] = tested on: serum growth hormone and cortisol; experiment: Oral capsule in healthy subjects, serum growth hormone and cortisol; assay type: in vivo, human; settings: 20 mg capsule, 5 healthy subjects
Experimental: A capsule containing 20 mg of the peptide of Example 18 was orally administered to 5 healthy subjects (3 men and 2 women, ages 30 to 66) and serum growth hormone and cortisol levels were measured at various times after administration.

[7] = mean of two subjects, read-out: mean IC50 value
[8] = subject 1, read-out: IC50 value
[9] = subject 2, read-out: IC50 value

SMILES: Cc1[nH]c2ccccc2c1C[C@@H](NC(=O)[C@@H](N)Cc1cnc[nH]1)C(=O)N[C@@H](C)C(=O)N[C@@H](Cc1c[nH]c2ccccc12)C(=O)N[C@H](Cc1ccccc1)C(=O)N[C@@H](CCCCN)C(N)=O [Example 4, His-D-2-methyl-Trp-Ala-Trp-D-Phe-Lys-NH2] (H-H[dTrp(2-Me)]AW[dF]K-NH2)
activity as Growth Hormone releaser (Growth Hormone release): very active | GH-releasing activity ([1]; 10^-6 M): 558.0 ± 19.1 ng/well | GH-releasing activity ([1]; 10^-7 M): 589.1 ± 17.9 ng/well | GH-releasing activity ([1]; 10^-8 M): 557.8 ± 15.9 ng/well | plasma GH (GH release [2]; s.c. 600 μg/kg, 30 min): 115.3 ± 19.1 ng/mL | GH-releasing effectiveness compared (GH release [2]; s.c. 150, 300 and 600 μg/kg, 10, 20 and 30 minutes): more effective than GHRP-6 at all the considered times | Dead rats/Total No of rats per group (rat; 5.0 mg/kg i.v. single dose): 0/6 | Dead rats/Total No of rats per group (rat; 7.5 mg/kg i.v. single dose): 1/6 | Dead rats/Total No of rats per group (rat; 10 mg/kg i.v. single dose): 2/6 | toxicity compared (rat; i.v. single dose, rat): less toxic than GHRP-6 | effect on growth hormone secretion (growth hormone secretion): effective in vivo | inhibition of 125I-Tyr-Ala-HEXARELIN specifically bound (Human heart tissue; 0.1 nM peptide, subject 1): 4% | specific binding of 125I-Tyr-Ala-HEXARELIN (Human heart tissue; 0.1 nM peptide, subject 1): 20.1% of total radioactivity | inhibition of 125I-Tyr-Ala-HEXARELIN specifically bound (Human heart tissue; 0.1 nM peptide, subject 2): 5% | specific binding of 125I-Tyr-Ala-HEXARELIN (Human heart tissue; 0.1 nM peptide, subject 2): 22.8% of total radioactivity | inhibition of 125I-Tyr-Ala-HEXARELIN specifically bound (Human heart tissue; 1 nM peptide, subject 1): 20% | specific binding of 125I-Tyr-Ala-HEXARELIN (Human heart tissue; 1 nM peptide, subject 1): 16.9% of total radioactivity | inhibition of 125I-Tyr-Ala-HEXARELIN specifically bound (Human heart tissue; 1 nM peptide, subject 2): 28% | specific binding of 125I-Tyr-Ala-HEXARELIN (Human heart tissue; 1 nM peptide, subject 2): 17.3% of total radioactivity | inhibition of 125I-Tyr-Ala-HEXARELIN specifically bound (Human heart tissue; 10 nM peptide, subject 1): 51% | specific binding of 125I-Tyr-Ala-HEXARELIN (Human heart tissue; 10 nM peptide, subject 1): 10.4% of total radioactivity | inhibition of 125I-Tyr-Ala-HEXARELIN specifically bound (Human heart tissue; 10 nM peptide, subject 2): 56% | specific binding of 125I-Tyr-Ala-HEXARELIN (Human heart tissue; 10 nM peptide, subject 2): 10.5% of total radioactivity | inhibition of 125I-Tyr-Ala-HEXARELIN specifically bound (Human heart tissue; 100 nM peptide, subject 1): 92% | specific binding of 125I-Tyr-Ala-HEXARELIN (Human heart tissue; 100 nM peptide, subject 1): 1.7% of total radioactivity | inhibition of 125I-Tyr-Ala-HEXARELIN specifically bound (Human heart tissue; 100 nM peptide, subject 2): 90% | specific binding of 125I-Tyr-Ala-HEXARELIN (Human heart tissue; 100 nM peptide, subject 2): 2.4% of total radioactivity | inhibition of 125I-Tyr-Ala-HEXARELIN specifically bound (Human heart tissue; 1000 nM peptide, subject 1): 100% | specific binding of 125I-Tyr-Ala-HEXARELIN (Human heart tissue; 1000 nM peptide, subject 1): 0% of total radioactivity | inhibition of 125I-Tyr-Ala-HEXARELIN specifically bound (Human heart tissue; 1000 nM peptide, subject 2): 100% | specific binding of 125I-Tyr-Ala-HEXARELIN (Human heart tissue; 1000 nM peptide, subject 2): 0% of total radioactivity | IC50 (Human heart tissue; [7]): 9.5 nM | IC50 (Human heart tissue; [8]): 10.6 nM | IC50 (Human heart tissue; [9]): 8.3 nM | inhibition of 125I-Tyr-Ala-HEXARELIN specifically bound ([3]; 0.1 nM peptide, subject 1): 3% | specific binding of 125I-Tyr-Ala-HEXARELIN ([3]; 0.1 nM peptide, subject 1): 10.7% of total radioactivity | inhibition of 125I-Tyr-Ala-HEXARELIN specifically bound ([3]; 0.1 nM peptide, subject 2): 4% | specific binding of 125I-Tyr-Ala-HEXARELIN ([3]; 0.1 nM peptide, subject 2): 9.1% of total radioactivity | inhibition of 125I-Tyr-Ala-HEXARELIN specifically bound ([3]; 1 nM peptide, subject 1): 16% | specific binding of 125I-Tyr-Ala-HEXARELIN ([3]; 1 nM peptide, subject 1): 9.6% of total radioactivity | inhibition of 125I-Tyr-Ala-HEXARELIN specifically bound ([3]; 1 nM peptide, subject 2): 19% | specific binding of 125I-Tyr-Ala-HEXARELIN ([3]; 1 nM peptide, subject 2): 7.7% of total radioactivity | inhibition of 125I-Tyr-Ala-HEXARELIN specifically bound ([3]; 10 nM peptide, subject 1): 51% | specific binding of 125I-Tyr-Ala-HEXARELIN ([3]; 10 nM peptide, subject 1): 5.2% of total radioactivity | inhibition of 125I-Tyr-Ala-HEXARELIN specifically bound ([3]; 10 nM peptide, subject 2): 67% | specific binding of 125I-Tyr-Ala-HEXARELIN ([3]; 10 nM peptide, subject 2): 3.1% of total radioactivity | inhibition of 125I-Tyr-Ala-HEXARELIN specifically bound ([3]; 100 nM peptide, subject 1): 89% | specific binding of 125I-Tyr-Ala-HEXARELIN ([3]; 100 nM peptide, subject 1): 1.2% of total radioactivity | inhibition of 125I-Tyr-Ala-HEXARELIN specifically bound ([3]; 100 nM peptide, subject 2): 93% | specific binding of 125I-Tyr-Ala-HEXARELIN ([3]; 100 nM peptide, subject 2): 0.7% of total radioactivity | inhibition of 125I-Tyr-Ala-HEXARELIN specifically bound ([3]; 1000 nM peptide, subject 1): 100% | specific binding of 125I-Tyr-Ala-HEXARELIN ([3]; 1000 nM peptide, subject 1): 0% of total radioactivity | inhibition of 125I-Tyr-Ala-HEXARELIN specifically bound ([3]; 1000 nM peptide, subject 2): 100% | specific binding of 125I-Tyr-Ala-HEXARELIN ([3]; 1000 nM peptide, subject 2): 0% of total radioactivity | IC50 [3, 7]: 7 nM | IC50 [3, 8]: 8.9 nM | IC50 [3, 9]: 5 nM | GH released (GH release [4]): 104.2 ± 13.1 ng/mL | hydrophobicity [5]: greater hydrophobicity than GHRP-6

cortisol levels [6]: without cortisol stimulation
SMILES: Cc1[nH]c2ccccc2c1C[C@H](NC(=O)[C@@H](Cc1c(C)[nH]c2ccccc12)NC(=O)[C@@H](Cc1c(C)[nH]c2ccccc12)NC(=O)CCCN)C(=O)N[C@@H](CCCCN)C(N)=O [Example 18, GAB-D-2-Mrp-D-2-Mrp-2-Mrp-Lys-NH2] (H-[GABA][dTrp(2-Me)][dTrp(2-Me)][Trp(2-Me)]K-NH2)
